# Measured values taken from PubChem BioAssay (NCI).
#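 Cells were grown in 96-well plates and exposed to each compound for 48 hours at five concentrations; endpoints were interpolated linearly between bracketing concentrations, or set to the highest concentration if not reached. TGI is the concentration that stops growth completely.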
# Tested on: UACC-62 melanoma
# Assay: NCI tumour cell line growth inhibition, 48 h
row,SMILES,TGI [µM]
1,NC(CCC(=O)O)C(=O)N1CCN(c2nc(N3CCCC3)c3nc(Cl)c(NCc4ccccc4)nc3n2)CC1 (configuration not stated),24.7
2,COC(=O)C(NC(=O)c1ccccc1)c1ccco1 (configuration not stated),> 100
3,c1ccc2c(c1)nc1n2CNC1,> 100
4,CC1ON2CCCC2[C@H]1C(=O)N1C2CC3CCC2(CS1(=O)=O)C3(C)C (some centres not stated),> 100
5,NNc1nncc2n[nH]nc12,> 100

# Tested on: UACC-257 melanoma
# Assay: NCI tumour cell line growth inhibition, 48 h
row,SMILES,TGI [µM]
1,CCOC(=O)CN=C1NNS(=O)(=O)c2ccccc21,> 100
2,Cc1ccc(N=Nc2c(C)c(C#N)c(=S)n(C3OC(CO)C(O)C(O)C3O)c2C)cc1 (configuration not stated),> 100
3,COc1cc(/C=C2\N=C(c3ccccc3)N(c3nc4c(OC)ccc(OC)c4s3)C2=O)ccc1O,> 100
4,O=C(Cc1ccccc1)N/N=C/c1ccccc1O,58
5,CC(C)=CC(=O)C[C@H]1C(=O)O[C@@H]2C[C@H]3C(C)=CC(=O)[C@@H](O)[C@]3(C)[C@H]3[C@@]4(O)OC[C@]32[C@@H]1[C@@H](C)[C@H]4O,0.608
6,COC(=O)C1C(=O)C=CN([C@H](C)c2ccccc2)[C@@H]1Cc1ccc(OC)c(OCc2ccccc2)c1I (some centres not stated),39.3
7,CN(C)CCCN1c2ccccc2Sc2cnccc21,49.5
8,COc1ccc(C2C3=C(Nc4ncnn42)c2ccccc2OC3c2ccccc2)cc1 (configuration not stated),> 100
9,C/C=C(/C)C(=O)O[C@H]1C[C@@H]2[C@@H](O)c3occ(C)c3C[C@]2(C)[C@@H](C)C1,23.2
10,Cc1cc(C)n(C2OC(CO)C(O)C(O)C2O)c(=S)c1C#N (configuration not stated),> 100
11,COC(=O)C(COC(C)=O)NC(=O)/C=C/c1ccc(O)c(OC(C)=O)c1 (configuration not stated),> 100
12,O=c1[nH]nc(Cc2ccccc2)[nH]1,> 100
13,CCOP(=O)(CN1CCNCCNCC1)OCC,> 100
14,CN(/N=C/c1ccc(OCc2cccc(COc3ccc(C=O)cc3)n2)cc1)c1cnn(-c2ccc(Cl)cc2Cl)c(=O)c1Cl,> 100
15,CC(C)Oc1ccc2c(c1)OCC1Cc3ccccc3OC21 (configuration not stated),> 100
16,O=C1C(Cl)C(c2cccc(Cl)c2)N1c1ccc(-n2c(=S)[nH]c3ccccc3c2=O)cc1 (configuration not stated),98.6
17,COc1cc2c(cc1OC)CCc1cc(OC)c(OC)cc1CC2,> 100
18,c1csc(-c2cc(-c3cccs3)c(-c3ccsc3)s2)c1,> 100
19,COc1ccc(N2C(=O)C3ON(C(C(N)=O)c4ccccc4)C(c4cc5ccccc5c5ccccc45)C3C2=O)cc1 (configuration not stated),> 50
20,COc1ccccc1N1CCN(CCCN2/C(=C(\O)c3ccccc3)C(=O)c3c(C)cc(C)nc3S2(=O)=O)CC1,> 100
21,NC(CCC(=O)O)C(=O)N1CCN(c2nc(N3CCCC3)c3nc(Cl)c(NCc4ccccc4)nc3n2)CC1 (configuration not stated),28.5
22,COC(=O)C(NC(=O)c1ccccc1)c1ccco1 (configuration not stated),> 100
23,CN1C2CCC1CC(CCNC(c1ccccc1)c1ccccc1)C2 (configuration not stated),31.8
24,c1ccc2c(c1)nc1n2CNC1,> 100
25,CC1ON2CCCC2[C@H]1C(=O)N1C2CC3CCC2(CS1(=O)=O)C3(C)C (some centres not stated),> 100
26,NNc1nncc2n[nH]nc12,> 100

# Tested on: SW-620 colon
# Assay: NCI tumour cell line growth inhibition, 48 h
row,SMILES,TGI [µM]
1,CCOC(=O)CN=C1NNS(=O)(=O)c2ccccc21,> 100
2,Cc1ccc(N=Nc2c(C)c(C#N)c(=S)n(C3OC(CO)C(O)C(O)C3O)c2C)cc1 (configuration not stated),38.8
3,COc1cc(/C=C2\N=C(c3ccccc3)N(c3nc4c(OC)ccc(OC)c4s3)C2=O)ccc1O,> 100
4,O=C(Cc1ccccc1)N/N=C/c1ccccc1O,> 100
5,CC(C)=CC(=O)C[C@H]1C(=O)O[C@@H]2C[C@H]3C(C)=CC(=O)[C@@H](O)[C@]3(C)[C@H]3[C@@]4(O)OC[C@]32[C@@H]1[C@@H](C)[C@H]4O,6.26
6,COC(=O)C1C(=O)C=CN([C@H](C)c2ccccc2)[C@@H]1Cc1ccc(OC)c(OCc2ccccc2)c1I (some centres not stated),> 100
7,CN(C)CCCN1c2ccccc2Sc2cnccc21,> 100
8,COc1ccc(C2C3=C(Nc4ncnn42)c2ccccc2OC3c2ccccc2)cc1 (configuration not stated),> 100
9,C/C=C(/C)C(=O)O[C@H]1C[C@@H]2[C@@H](O)c3occ(C)c3C[C@]2(C)[C@@H](C)C1,32.6
10,Cc1cc(C)n(C2OC(CO)C(O)C(O)C2O)c(=S)c1C#N (configuration not stated),> 100
11,COC(=O)C(COC(C)=O)NC(=O)/C=C/c1ccc(O)c(OC(C)=O)c1 (configuration not stated),> 100
12,O=c1[nH]nc(Cc2ccccc2)[nH]1,> 100
13,CCOP(=O)(CN1CCNCCNCC1)OCC,> 100
14,CN(/N=C/c1ccc(OCc2cccc(COc3ccc(C=O)cc3)n2)cc1)c1cnn(-c2ccc(Cl)cc2Cl)c(=O)c1Cl,> 100
15,CC(C)Oc1ccc2c(c1)OCC1Cc3ccccc3OC21 (configuration not stated),> 100
16,O=C1C(Cl)C(c2cccc(Cl)c2)N1c1ccc(-n2c(=S)[nH]c3ccccc3c2=O)cc1 (configuration not stated),> 100
17,COc1cc2c(cc1OC)CCc1cc(OC)c(OC)cc1CC2,> 100
18,c1csc(-c2cc(-c3cccs3)c(-c3ccsc3)s2)c1,> 100
19,COc1ccc(N2C(=O)C3ON(C(C(N)=O)c4ccccc4)C(c4cc5ccccc5c5ccccc45)C3C2=O)cc1 (configuration not stated),> 50
20,COc1ccccc1N1CCN(CCCN2/C(=C(\O)c3ccccc3)C(=O)c3c(C)cc(C)nc3S2(=O)=O)CC1,> 100
21,NC(CCC(=O)O)C(=O)N1CCN(c2nc(N3CCCC3)c3nc(Cl)c(NCc4ccccc4)nc3n2)CC1 (configuration not stated),51.3
22,COC(=O)C(NC(=O)c1ccccc1)c1ccco1 (configuration not stated),> 100
23,CN1C2CCC1CC(CCNC(c1ccccc1)c1ccccc1)C2 (configuration not stated),> 100
24,c1ccc2c(c1)nc1n2CNC1,> 100
25,CC1ON2CCCC2[C@H]1C(=O)N1C2CC3CCC2(CS1(=O)=O)C3(C)C (some centres not stated),> 100
26,NNc1nncc2n[nH]nc12,> 100
